What was measured:
[1] = test system: serum PTH; conditions: tHPT patients, after 10 weeks of treatment; cited from earlier work
[2] = test system: plasma PTH; test: Plasma PTH after bedtime administration of GLP-2 in non-fasting subjects (Example 2); type: in vivo, human; conditions: postmenopausal women, 2x800 μg 3 hrs apart versus 1600 μg once, at bedtime, FIG. 2
Description: The study was a randomized, block-stratified, placebo-controlled, parallel study. A total of 44 postmenopausal women were included and randomly assigned to treatment with either 1600 μg GLP-2 (n=14), 800 μg GLP-2 twice (administered 3 hrs apart) (n=15), or placebo, i.e. saline (n=15). All subjects received 2 injections one at 10 pm […] and one 3 hrs later at 1 am […]. Thus, the placebo group was given two injections of saline and the 2×800 μg group two injections of 800 μg GLP-2, while the 1600 μg group received one injection of 1600 μg GLP-2 and one injection of saline.
On the day of treatment with the study medication, blood samples for efficacy measurement was taken from 10 pm every hour until 8 am.

[3] = test system: plasma PTH; test: Plasma PTH after morning administration of GLP-2 in fasting subjects (Example 1); type: in vivo, human; conditions: postmenopausal women, one dose of 100, 200, 400 or 800 μg at 9 am, followed 8 hrs, FIG. 1
Description: The study was a randomized, block-stratified, placebo-controlled, parallel study. A total of 60 subjects of postmenopausal women were included and allocated to one of five groups each including 12 subjects receiving one dose of 100 μg, 200 μg, 400 μg, 800 μg GLP-2, or placebo.
On the day of treatment with the study medication, the subjects met at the study site after an overnight fast. The study medication was administered at 9 am (0 hrs) and the subjects remained fasting for another 8 hrs, thus at 5 pm the fasting period ended.

[4] = test system: plasma PTH; test: Plasma PTH at Day 1 and Day 120 after daily bedtime administration for 120 days (Example 3); type: in vivo, human; conditions: postmenopausal women with osteopenia; daily 0.4, 1.6 or 3.2 mg subcutaneous at bedtime for 120 days plus calcium and vitamin D
Description: The study was a randomised, double-blinded, placebo-controlled, parallel group and dose-ranging study in 160 postmenopausal women with osteopenia (BMD T-score, −2.5≦T≦−1.0) at one or more of the regions: the lumbar spine, femoral neck or total hip. Forty (40) subjects were randomised to each treatment group to receive treatment with daily doses of 0.4 mg, 1.6 mg or 3.2 mg of GLP-2 plus calcium (800-1000 mg/day) and vitamin D (400-800 IU/day), or placebo plus calcium (800-1000 mg/day) and vitamin D (400-800 IU/day) for 120 days.
The treatment involved a daily injection of the study medication at bedtime (10:00 pm±1 hour) for 120 consecutive days.
Pharmacokinetic/dynamic sampling during treatment Day 1 and 120 included blood and urine samples collected at the time points: −1 hour, 0 min, 1 hour, 2 hours, 3 hours, 6 hours and 10 hours in connection with the injection of the study medication for the assessment of efficacy parameters and pharmacokinetic/dynamic parameters of subcutaneous injections of GLP-2.

[5] = rats; cited from earlier work

Compound: C[C@@H](NCCCc1cccc(C(F)(F)F)c1)c1cccc2ccccc12 [Cinacalcet]
- reduction in serum PTH [1]: 21.8%

Compound: His-Ala-Asp-Gly-Ser-Phe-Ser-Asp-Glu-Met-Asn-Thr-Ile-Leu-Asp-Asn-Leu-Ala-Ala-Arg-Asp-Phe-Ile-Asn-Trp-Leu-Ile-Gln-Thr-Lys-Ile-Thr-Asp-Arg (HADGSFSDEMNTILDNLAARDFINWLIQTKITDR; printed: His-Ala-Asp-Gly-Ser-Phe-Ser-Asp-Glu-Met-Asn-Thr-Ile-Leu-Asp-Asn-Leu-Ala-Ala-Arg-Asp-Phe-Ile-Asn-Trp-Leu-Ile-Gln-Thr-Lys-Ile-Thr-Asp-Arg) [GLP-2]
- plasma PTH, area difference between treatment and placebo curves [2]: two injections of 800 μg produced a greater area difference between the treatment and placebo curves
- plasma PTH level after GLP-2 [3]: dose dependent rapid decrease in PTH which gradually abates over an 8 hour period
- effect on plasma PTH over the treatment period, Day 1 versus Day 120 [4]: remains consistent

Compound: C=C1/C(=C\C=C2/CCC[C@]3(C)[C@@H]([C@H](C)CCCC(C)(C)O)CC[C@@H]23)C[C@@H](O)C[C@@H]1O [calcitriol]
- aortic calcification [5]: moderate to marked aortic calcification

Source: patent US20100081622A1, “Reduction of parathyroid hormone levels” (Sanos Bioscience A/S, priority 2008, published 2010)
